From EP4685152A1, “PEPTIDE BINDING TO LAG-3 AND USE THEREOF” (Kyungpook National University Industry-Academic Cooperation …, priority 2023, dated 2024)

Assays:
LAG-3 [1] = biological target: T1, LAG-3 (Homo sapiens, UniProt P18627); assay: Peptide binding to LAG-3-transfected cells by immunofluorescence microscopy; format: cell-based; parameters: GFP; host or cells: HEK-293T; details: red fluorescent (TAMRA) peptide 25 µM; LAG-3-transfected Hek-293T cells compared to non-transfected control cells
T1 sequence (P18627 23-525): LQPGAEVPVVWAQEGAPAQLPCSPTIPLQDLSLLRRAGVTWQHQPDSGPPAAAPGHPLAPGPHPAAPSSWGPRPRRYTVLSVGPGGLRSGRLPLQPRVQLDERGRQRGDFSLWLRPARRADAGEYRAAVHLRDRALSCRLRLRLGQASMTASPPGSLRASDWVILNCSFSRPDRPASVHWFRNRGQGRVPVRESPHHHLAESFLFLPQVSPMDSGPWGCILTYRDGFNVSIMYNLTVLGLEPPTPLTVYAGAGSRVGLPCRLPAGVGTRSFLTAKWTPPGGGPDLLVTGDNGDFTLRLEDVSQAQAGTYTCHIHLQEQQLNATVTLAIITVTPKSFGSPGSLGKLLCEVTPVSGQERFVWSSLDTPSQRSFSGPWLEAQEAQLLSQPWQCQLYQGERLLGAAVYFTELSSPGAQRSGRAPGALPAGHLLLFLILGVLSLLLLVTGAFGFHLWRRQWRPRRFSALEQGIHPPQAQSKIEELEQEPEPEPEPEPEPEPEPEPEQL
Method: Hek-293T cells (1.25×10^5) were seeded in 4-well chamber slides, transfected with human LAG-3 plasmid, and […]. Non-transfected cells were used as a control group. The next day, cells were washed twice with phosphate buffer and reacted with 1% BSA at room temperature for 1 hour to reduce nonspecific binding of peptides. Afterwards, cells were reacted with TAMRA-conjugated peptide at a concentration of 25 µM at 4°C for 1 hour. After fixation, cells were washed, counterstained with DAPI, treated with an anti-fade reagent to preserve fluorescence, and analyzed using a confocal microscope (Nanoscope System).
(§1) To determine the degree of binding of the peptide to LAG-3, a peptide labeled with a red fluorescent reagent was synthesized and treated in Hek-293T cells transfected with LAG-3 followed by observation under an immunofluorescence microscope. Non-transfected cells were used as a control group. Meanwhile, Jurkat T cells stimulated with PMA, ionomycin, and CQ to increase expression of LAG-3 were treated with the peptide, and binding was observed using a flow cytometer. Unstimulated Jurakt T cells were used as a control group.

[2] = biological target: T2, recombinant LAG-3 protein (Homo sapiens, UniProt P18627); assay: Pull-down with biotin-peptide and streptavidin beads, immunoblotting; recombinant protein; format: binding; details: biotin-labeled peptides, compared to the control group
T2 construct: purchased Acro Biosystems
T2 sequence (P18627 23-450 limits assumed): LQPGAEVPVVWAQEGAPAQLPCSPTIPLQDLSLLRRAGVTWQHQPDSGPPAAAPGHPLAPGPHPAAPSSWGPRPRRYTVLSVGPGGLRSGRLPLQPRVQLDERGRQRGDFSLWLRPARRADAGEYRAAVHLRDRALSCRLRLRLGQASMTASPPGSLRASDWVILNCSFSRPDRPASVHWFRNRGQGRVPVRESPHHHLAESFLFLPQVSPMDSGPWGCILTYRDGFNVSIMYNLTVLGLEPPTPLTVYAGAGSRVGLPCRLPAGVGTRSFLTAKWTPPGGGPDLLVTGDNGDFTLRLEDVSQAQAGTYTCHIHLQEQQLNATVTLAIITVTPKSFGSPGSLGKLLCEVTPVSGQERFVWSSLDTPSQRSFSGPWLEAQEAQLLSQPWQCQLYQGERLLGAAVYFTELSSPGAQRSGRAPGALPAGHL
Method: (§2) The binding specificity of the LAG-3 binding peptide was measured by pull-down analysis. After pull-down with LAG-3 binding peptide using human recombinant LAG-3 protein, it was applied to immunoblotting using LAG-3 antibody. In the same manner, cell lysates with LAG-3 overexpressed were […] using human LAG-3 plasmid DNA and then subjected to immunoblotting using LAG-3 antibodies.

LAG-3 [3] = biological target: T1, LAG-3; assay: Competitive binding with LAG-3 blocking antibody, immunofluorescence microscopy on LAG-3-transfected cells; format: cell-based; parameters: GFP; host or cells: HEK-293T; details: LAG-3-transfected Hek-293T cells; LAG-3 blocking antibody 10 µg/ml first, then peptide 25 µM; compared to group without antibody
Method: Hek-293T cells (1.25×10^5) were seeded in 4-well chamber slides and transfected with human LAG-3 plasmid, and the next day, the cells were washed twice with phosphate buffer and reacted with 1% BSA at room temperature for 1 hour to reduce nonspecific binding. Afterwards, cells were blocked with human LAG-3 blocking antibody (10 µg/ml) at 4°C for 30 minutes, and then reacted with TAMRA-conjugated peptide at a concentration of 25 µM at 4°C for 1 hour. After fixation, cells were washed, counterstained with DAPI, treated with an anti-fade reagent to preserve fluorescence, and analyzed using a confocal microscope (Nanoscope System).

LAG-3 [4] = biological target: T1, LAG-3; assay: Phage binding ELISA on LAG-3-transfected or non-transfected cells; format: cell-based; parameters: GFP; host or cells: HEK-293T; details: phage clone 3 among 13 selected phage clones; transfected or non-transfected Hek-293T cells; OD 450 nm
Method: Hek-293T cells (2.5×10^4) were seeded in a 96-well plate and transfected with LAG-3 plasmid. Culture was performed for 48 hours. Non-transfected Hek-293T cells were used as a control group. Plates were blocked with 10 mg/ml BSA for 1 hour at room temperature. After washing the wells six times with Tris-buffered saline-Tween 20 (0.1%), 100 µl of phage clones (1×10^9 pfu/well) were added and reacted at 4°C for 1 hour. After washing, horse-radish peroxidase (HRP)-conjugated T7 tail fiber antibody (diluted 1:10,000 in blocking buffer) was added and reacted at room temperature for 1 hour. After washing the plate six more times, a substrate consisting of 3,3',5,5'-tetramethylbenzidine was added and reacted at room temperature for 10-15 minutes. The reaction was finally stopped by adding 100 µl of 2 M H2SO4 (stop solution), and the plates were analyzed at 450 nm with a microplate reader.

Jurkat T cells = assay: T-cell activation assay (IL-2 ELISA); format: cell-based, human; details: stimulated Jurkat T cells under co-culture of HepG2 cells, HepG2 cell culture medium, or recombinant FGL-1 (10 µg/ml); peptide 50 µM, antibody 10 µg/ml; 24 hours
Method: Jurkat T cells (1×10^6) were inoculated into a T25 flask and stimulated for 24 hours using PMA (50 ng/ml), ionomycin (1 µg/ml), and CQ (100 µM). HepG2 cells (5×10^3) were inoculated in a 96-well plate to induce secretion of FGL-1 for 48 hours. To co-culture the two types of cells, stimulated Jurkat T cells (2.5×10^4) were mixed with HepG2 at a ratio of 1:5. Similarly, for indirect co-culture, stimulated Jurkat T cells (2.5×10^4) were mixed with HepG2 cell culture medium. Finally, to observe the direct effect, stimulated Jurkat T cells (2.5×10^4) were treated with recombinant FGL-1 (10 µg/ml) protein. […] Afterwards, culture was carried out for an additional 24 hours for reaction. Control peptides were also used for comparison. After each culture time, the supernatant was harvested, and IL-2 secretion was measured using an ELISA kit for measuring human IL-2.
Investigation was made on whether the interaction between FGL-1 secreted from HepG2 hepatoma cells and LAG-3 of T cells inhibits T cell activity and, if so, whether it is blocked by a LAG-3 binding peptide. For this purpose, in the first experiment, Jurkat T cells were cultured with stimulation for 24 hours using PMA, ionomycin, and CQ. HepG2 cells were cultured in 96-well plates for 48 hours for FGL-1 secretion. […]

[5] = tested on: MC38 mouse colon cancer cells; assay: In-vivo antitumor therapy, syngeneic MC38 mouse tumor model; parameters: species or system C57BL/6 mice; details: compared to control group and phosphate buffer group; 10 mg/kg; peptide intravenously 6 times, antibody intraperitoneally 3 times
Method: 6-8-week-old C57BL/6 mice were purchased. Mice were bred and kept under the guidelines of the Institutional Animal Care and Use Committee (IACUC) of Kyungpook National University (2023-0184). Tumors were injected into the lower right flank of mice. For in-vivo antitumor treatment, mice were randomly selected and grouped when tumor size reached approximately 100-150 mm^3. Thereafter, the peptide was injected intravenously three times a week for two weeks at a dose of 10 mg/kg, and similarly the antibody was injected intraperitoneally three times at the same dose. Tumor size was measured using a digital caliper, and tumor volume was calculated using the formula (V = length × width^2 × 0.52) (where length (L) is the longest dimension, and width (W) is the shortest dimension, parallel to the mouse body). All mice were checked for ulcer severity after treatment, treatment was terminated when the tumor size reached approximately 3000 mm^3, and the mice were sacrificed.
To identify the anticancer effect in a syngeneic mouse tumor model, LAG-3 binding peptide was administered alone or in combination with PD-L1 antibody to mice in which tumors were induced using MC38 mouse colon cancer cells (FIG. 9a). […]

[6] = biological target: T3, cell lysate overexpressing LAG-3 (Homo sapiens, UniProt P18627); assay: Pull-down with biotin-peptide and streptavidin beads, immunoblotting; cell lysate; format: binding; details: cell lysate overexpressing LAG-3, biotin-labeled peptides; compared to the control group
T3 construct: GFP; host or cells: HEK-293T
T3 sequence (P18627 23-525): T1 sequence (P18627 23-525)
Method: as §2

LAG-3 [7] = biological target: T1, LAG-3; assay: Competitive binding with LAG-3 blocking antibody, flow cytometry on stimulated Jurkat T cells; format: cell-based; details: LAG-3 blocking antibody 10 µg/ml first, then peptide 10 µM, compared to untreated control group
Method: Similarly, for flow cytometry, Jurkat T cells (1×10^6) stimulated with PMA (50 ng/ml), ionomycin (1 µg/ml), and CQ (100 µM) were harvested and suspended in culture medium containing 1% BSA for 1 hour at room temperature to block nonspecific binding. Afterwards, cells were blocked with human LAG-3 blocking antibody (10 µg/ml) at 4°C for 30 minutes and then reacted with fluorescein isothiocyanate-conjugated peptide at a concentration of 10 µM at 4°C for 1 hour. After washing several times, 300 µl of cell suspension suspended in phosphate buffer was applied to Attune NxT flow cytometry (Thermo Fisher Scientific).

LAG-3 [8] = biological target: T1, LAG-3; assay: Peptide binding to stimulated Jurkat T cells by flow cytometry; format: cell-based; details: FITC-labeled peptide 10 µM; Jurkat T cells stimulated with PMA, ionomycin, CQ compared to unstimulated control cells
Method: For flow cytometry, Jurkat T cells (1×10^6) stimulated with PMA (50 ng/ml), ionomycin (1 µg/ml), and CQ (100 µM) were harvested and suspended in culture medium containing 1% BSA for blocking at room temperature for 1 hour. Afterwards, the cells were further reacted with fluorescein isothiocyanate-labeled LAG-3 binding peptide (10 µM) at 4°C for 1 hour. After washing several times, 300 µl of cell suspension suspended in phosphate buffer was applied to Attune NxT flow cytometry (Thermo Fisher Scientific).
as §1

Q: Which results are given for `CC(C)C[C@H](NC(=O)[C@@H](NC(=O)[C@H](CO)NC(=O)[C@@H](N)CS)C(C)C)C(=O)N[C@@H](CC(N)=O)C(=O)N[C@@H](C)C(=O)N[C@@H](CO)C(=O)NCC(=O)N[C@@H](CS)C(=O)O` [LAG3Pep-2]?
A: binding of peptide to LAG-3 expressing cells (LAG-3 [1]): bind more strongly; detection of LAG-3 protein after pull-down [2]: more detection of LAG-3 protein; binding strength of peptide after LAG-3 blocking antibody (LAG-3 [3]): reduced; cell binding by phage binding ELISA (LAG-3 [4]): highest level of binding; IL-2 secretion (Jurkat T cells): significantly increased; cancer growth, single administration [5]: partially inhibited; detection of LAG-3 proteins after pull-down [6]: more LAG-3 proteins were detected; binding of peptide after LAG-3 blocking antibody (LAG-3 [7]): reduced; binding of peptide to stimulated Jurkat T cells (LAG-3 [8]): more LAG-3Pep-1 and LAG-3Pep-2 peptides were bound

Q: What does the source list for `CC[C@H](C)[C@@H]1NC(=O)[C@@H](N)CSSC[C@@H](C(=O)O)NC(=O)[C@H](C(C)C)NC(=O)[C@H](C)NC(=O)[C@@H]2CCCN2C(=O)[C@H](CC(=O)O)NC(=O)[C@H](CC(N)=O)NC(=O)[C@H](CCCNC(=N)N)NC1=O` [LAG3Pep-1]?
A: binding of peptide to LAG-3 expressing cells (LAG-3 [1]): bind more strongly; binding strength of peptide after LAG-3 blocking antibody (LAG-3 [3]): reduced; binding of peptide after LAG-3 blocking antibody (LAG-3 [7]): reduced; binding of peptide to stimulated Jurkat T cells (LAG-3 [8]): more LAG-3Pep-1 and LAG-3Pep-2 peptides were bound
